# Test results reported in patent US20130005743A1, “New positive allosteric modulators of nicotinic acetylcholine receptor” (H. Lundbeck A/S, priority 2011, published 2013).
# Experiments:
# human α7 receptor = target: T1, human α7 receptor (Homo sapiens, UniProt P36544); test: α7 NNR flux assay (FDSS Ca assay, positive allosteric modulation of acetylcholine response); assay type: cell-based; settings: human α7 receptor stably expressed in rat GH4C1 cells; acetylcholine 20 μM; % modulation relative to PNU-120596 set to 100%
# T1 construct: host or cells: rat GH4C1 cell line
# T1 sequence (P36544 23-502): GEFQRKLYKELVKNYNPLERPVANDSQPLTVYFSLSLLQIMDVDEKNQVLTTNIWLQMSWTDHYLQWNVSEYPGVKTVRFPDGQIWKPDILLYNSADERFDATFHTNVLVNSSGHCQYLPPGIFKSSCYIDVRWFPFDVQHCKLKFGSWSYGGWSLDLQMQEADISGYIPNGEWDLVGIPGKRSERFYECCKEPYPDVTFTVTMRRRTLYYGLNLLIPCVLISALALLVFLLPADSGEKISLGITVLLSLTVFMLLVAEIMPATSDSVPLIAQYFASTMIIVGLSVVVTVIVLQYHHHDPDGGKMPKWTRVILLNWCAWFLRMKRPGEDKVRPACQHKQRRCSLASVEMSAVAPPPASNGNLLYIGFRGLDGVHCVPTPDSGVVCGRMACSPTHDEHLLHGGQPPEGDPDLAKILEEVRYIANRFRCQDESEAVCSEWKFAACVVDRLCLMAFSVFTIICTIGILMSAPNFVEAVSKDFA
# Description: The nicotinic acetylcholine receptor α7 is a calcium-permeable ion channel, whose activity can be measured by over expression in mammalian cells or oocytes. In this version of the assay, the human α7 receptor is stably expressed in the rat GH4C1 cell line. The assay was used to identify positive allosteric modulators (PAMs) of the α7 receptor. Activation of the channel was measured by loading cells with the calcium-sensitive fluorescent dye. Calcium-4 (Assay kit from Molecular Devices), and then measuring real-time changes, in fluorescence upon treatment with test compounds.
# The cell line ChanClone GH4C1-nAChRalpha7 from Genionics was seeded from frozen stock in 384-well plates in culture media 2-3 days before experiment to form an approximately 80% confluent layer on the day of experiment.
# The cell culture were split into “22.5 cm×22.5 cm”-plates with approximately 100×10^3 cells/cm^2. After four days incubation in a humidified incubator at 37° C. and 5% CO2, it had grown to an 80-90% confluent layer, and the cells were harvested.
# Two or three days before the experiment the cells were seeded in 384 well plates from Greiner bio-one (781946, CELLCOAT, Poly-D-Lysine, black, μClear).
# The cells were seeded in 384 well plates with 30 μL/well (30000 cells/well) while stirring the cell suspension or otherwise preventing the cells from precipitating.
# The loading buffer was 5% v/v Calcium-4 Kit and 2.5 mM Probenecid in assay buffer.
# Culture media was removed from the cell plates and 20 μL loading buffer was added in each well. The cell plates were placed in trays and incubated 90 minutes in the incubator (37° C.). Thereafter the plates were incubated 30 minutes at room temperature, still protected from light.
# The assay buffer was HBSS with 20 mM HEPES, pH 7.4 and 3 mM CaCl2.
# […] 10 mM compound solution in DMSO was diluted in 50 μL assay buffer. The final test concentrations in the cell plates were 20-10-5-2.5-1.25-0.625-0.312-0.156-0.078-0.039 μM. Assay buffer and 3 μM PNU-120596 were used for control. The agonist acetylcholine was added to a final concentration of 20 μM (˜EC100). In the FDSS7000 the Ex480-Em540 was measured with 1 second intervals. The baseline was made of 5 frames before addition of test compounds, and 95 frames more were made before addition of acetylcholine. The measurement stopped 30 frames after the 2nd addition. Raw data for each well were collected as “the maximum fluorescence count” in the interval 100-131 seconds and as “the average fluorescence count” in the interval 96-100 seconds. The positive allosteric modulation in the 2nd addition was the enhancement of agonist response with test compound compared to agonist alone.
# Results were calculated as % modulation of test compound compared to the reference PNU-120596 set to 100%.
# α7 nACh receptors = test: α7 NNR oocyte assay (electrophysiological recordings in Xenopus oocytes); assay type: cell-based, human or rat; settings: compound at 10 μM co-applied with ACh (30 μM), fold modulation of the control response; for Fold modulation, peak: peak response; for Fold modulation, AUC: total charge (AUC)
# Description: Expression of α7 nACh Receptors in Xenopus Oocytes.
# Oocytes were surgically removed from mature female Xenepus laevis anaesthetized in 0.4% MS-222 for 10-15 min. The oocytes were then digested at room temperature for 2-3 hours with 0.5 mg/mL collagenase (type IA Sigma-Aldrich) in OR2 buffer (82.5 mM NaCl, 2.0 mM KCl, 1.0 mM MgCl2 and 5.0 mM HEPES, pH 7.6). Oocytes avoid of the follicle layer were selected and incubated for 24 hours in Modified Barth's Saline buffer (88 mM NaCl, 1 mM KCl, 15 mM HEPES, 2.4 mM NaHCO3, 0.41 mM CaCl2, 0.82 mM MgSO4, 0.3 mM Ca(NO3)2) supplemented with 2 mM sodium pyruvate, 0.1 U/l penicillin and 0.1 μg/1 streptomycin. Stage 1V oocytes were identified and injected with 4.2-48 nl of nuclease free water containing 0.1-1.2 ng of cRNA coding for human α7 nACh receptors or 3.0-32 ng of cRNA coding for rat α7 nACh receptors and incubated at 18° C. for 1-10 days when they were used for electrophysiological recordings.
# Electrophysiological Recordings of α7 nACh Receptors Expressed in Oocytes.
# Oocytes were used for electrophysiological recordings 1-10 days after injection. Oocytes were placed in a 1 mL bath and perfused with Ringer buffer (115 mM NaCl, 2.5 mM KCl, 10 mM HEPES, 1.8 mM CaCl2, 0.1 mM MgCl2, pH 7.5)'. Cells were impaled with agar plugged 0.2-1 MΩ electrodes containing 3 M KCl and voltage clamped at −90 mV by a GeneClamp 500B amplifier. The experiments were performed at room temperature. Oocytes were continuously perfused with Ringer buffer and the drugs were applied in the perfusate. ACh (30 μM) applied for 30 sec were used as the standard agonist for activation of the α7 nACh receptors. In the standard screening set-up the new test compound (10 μM or 30 μM) were applied for 1 min of pre-application allowing for evaluation of agonistic activity followed by 30 sec of co-application with ACh (30 μM) allowing for evaluation of PAM activity. The response of co-application was compared to the agonistic response obtained with ACh alone. The drug induced effects on both the peak response and the total charge (AUC) response were calculated thus giving the effect of drug induced PAM activity as fold modulation of the control response. Table 2 indicates fold modulation of compounds No. 21, 22, 24, 34, 35 and 36 at determined at 10 μM.
# For more elaborate studies doses-response curves can be performed for evaluation of max-fold modulation and EC50 values for both peak and AUC responses.
Compound,melting point [°C],EC50 (human α7 receptor) [µM],"Fold modulation, peak (α7 nACh receptors)","Fold modulation, AUC (α7 nACh receptors)"
"COc1cc(C)ncc1NC(=O)c1cc(C)nc2c1c(C)nn2-c1ccccc1 [Compound 29, 3,6-Dimethyl-1-phenyl-1H-pyrazolo[3,4-b]pyridine-4-carboxylic acid (4-methoxy-6-methyl-pyridin-3-yl)-amide]",206 to 207,5.1,,
"COc1ccc(-n2nc(OC)c3c(C(=O)Nc4c(C)ccnc4C)cc(C)nc32)cc1 [Compound 24, 3-Methoxy-1-(4-methoxy-phenyl)-6-methyl-1H-pyrazolo[3,4-b]pyridine-4-carboxylic acid (2,4-dimethyl-pyridin-3-yl)-amide]",,≥ 20,5.1,2.5
"Cc1cc(C(=O)Nc2c(C)ccnc2C)c2c(C)nn(-c3ccc(C(F)(F)F)cc3)c2n1 [Compound 22, 3,6-Dimethyl-1-(4-trifluoromethyl-phenyl)-1H-pyrazolo[3,4-b]pyridine-4-carboxylic acid (2,4-dimethyl-pyridin-3-yl)-amide]",,≥ 20,8.1,3.2
"Cc1cc(C(=O)Nc2c(C)ccnc2C)c2c(C)nn(-c3ccc(S(N)(=O)=O)cc3)c2n1 [Compound 21, 3,6-Dimethyl-1-(4-sulfamoyl-phenyl)-1H-pyrazolo[3,4-b]pyridine-4-carboxylic acid (2,4-dimethyl-pyridin-3-yl)-amide]",,≥ 20,1.7,1.7
"Cc1cc(C(=O)Nc2c(C)ccnc2C)c2c(C)nn(-c3ccc(S(C)(=O)=O)cc3)c2n1 [Compound 34, 1-(4-Methanesulfonyl-phenyl)-3,6-dimethyl-1H-pyrazolo[3,4-b]pyridine-4-carboxylic acid (2,4-dimethyl-pyridin-3-yl)-amide]",,≥ 20,1.9,1.9
"Cc1cc(C(=O)Nc2c(C)ccnc2C)c2c(C)nn(-c3ccc(OC(F)F)cc3)c2n1 [Compound 19, 1-(4-Difluoromethoxy-phenyl)-3,6-dimethyl-1H-pyrazolo[3,4-b]pyridine-4-carboxylic acid (2,4-dimethyl-pyridin-3-yl)-amide]",,3.3,,
"Cc1cc(C(=O)Nc2c(C)ccnc2C)c2c(C)nn(-c3ccsc3)c2n1 [Compound 25, 3,6-Dimethyl-1-thiophen-3-yl-1H-pyrazolo[3,4-b]pyridine-4-carboxylic acid (2,4-dimethyl-pyridin-3-yl)-amide]",,7.2,,
"COc1ccc(-n2nc(C)c3c(C(=O)Nc4cnccc4C#N)cc(C)nc32)cc1 [Compound 36, 1-(4-Methoxy-phenyl)-3,6-dimethyl-1H-pyrazolo[3,4-b]pyridine-4-carboxylic acid (4-cyano-pyridin-3-yl)-amide]",,≥ 20,7.9,3.9
"Cc1cc(C(=O)Nc2c(C)ccnc2C)c2c(C)nn(-c3ccc(F)cc3)c2n1 [Compound 13, 1-(4-Fluoro-phenyl)-3,6-dimethyl-1H-pyrazolo[3,4-b]pyridine-4-carboxylic acid (2,4-dimethyl-pyridin-3-yl)-amide]",,7.8,,
"Cc1cc(C(=O)Nc2c(C)ccnc2C)c2c(C)nn(-c3cncnc3)c2n1 [Compound 26, 3,6-Dimethyl-1-pyrimidin-5-yl-1H-pyrazolo[3,4-b]pyridine-4-carboxylic acid (2,4-dimethyl-pyridin-3-yl)-amide]",,11,,
"Cc1cc(C(=O)Nc2c(C)ccnc2C)c2c(C)nn(-c3ccc(N(C)C)cc3)c2n1 [Compound 23, 1-(4-Dimethylamino-phenyl)-3,6-dimethyl-1H-pyrazolo[3,4-b]pyridine-4-carboxylic acid (2,4-dimethyl-pyridin-3-yl)-amide]",,3.6,,
"COc1ccc(-n2nc(C)c3c(C(=O)Nc4cncnc4C)cc(C)nc32)cc1 [Compound 20, 1-(4-Methoxy-phenyl)-3,6-dimethyl-1H-pyrazolo[3,4-b]pyridine-4-carboxylic acid (4-methyl-pyrimidin-5-yl)-amide]",,4.6,,
"COc1ccc(-n2nc(C)c3c(C(=O)Nc4c(C)ccnc4C)cc(-c4ccccc4)nc32)cc1 [Compound 35, 1-(4-Methoxy-phenyl)-3-methyl-6-phenyl-1H-pyrazolo[3,4-b]pyridine-4-carboxylic acid (2,4-dimethyl-pyridin-3-yl)-amide]",,≥ 20,14,9.2
"COc1cccc(-n2nc(C)c3c(C(=O)Nc4c(C)ccnc4C)cc(C)nc32)c1 [Compound 9, 1-(3-Methoxy-phenyl)-3,6-dimethyl-1H-pyrazolo[3,4-b]pyridine-4-carboxylic acid (2,4-dimethyl-pyridin-3-yl)-amide]",,4,,
"Cc1cc(C(=O)Nc2c(C)ccnc2C)c2c(C)nn(-c3ccc(O)cc3)c2n1 [Compound 37, 1-(4-Hydroxy-phenyl)-3,6-dimethyl-1H-pyrazolo[3,4-b]pyridine-4-carboxylic acid (2,4-dimethyl-pyridin-3-yl)-amide]",,9.5,,
"COc1ccc(-n2nc(C)c3c(C(=O)Nc4cnc(C)cc4C)cc(C)nc32)cc1 [Compound 33, 1-(4-Methoxy-phenyl)-3,6-dimethyl-1H-pyrazolo[3,4-b]pyridine-4-carboxylic acid (4,6-dimethyl-pyridin-3-yl)-amide]",,8.9,,
"COc1ccnc(C)c1NC(=O)c1cc(C)nc2c1c(C)nn2-c1ccccc1 [Compound 28, 3,6-Dimethyl-1-phenyl-1H-pyrazolo[3,4-b]pyridine-4-carboxylic acid (4-methoxy-2-methyl-pyridin-3-yl)-amide]",,6.5,,
"COc1ccc(-n2nc(C)c3c(C(=O)Nc4c(C)ccnc4OC)cc(C)nc32)cc1 [Compound 7, 1-(4-Methoxy-phenyl)-3,6-dimethyl-1H-pyrazolo[3,4-b]pyridine-4-carboxylic acid (2-methoxy-4-methyl-pyridin-3-yl)-amide]",,2.2,,
"COc1ccccc1-n1nc(C)c2c(C(=O)Nc3c(C)ccnc3C)cc(C)nc21 [Compound 4, 1-(2-Methoxy-phenyl)-3,6-dimethyl-1H-pyrazolo[3,4-b]pyridine-4-carboxylic acid (2,4-dimethyl-pyridin-3-yl)-amide]",,7.1,,
